Measurements as given in EPA's ToxRefDB 2.

Assays:
[1] = test system: rat; details: Prenatal developmental toxicity study, sprague dawley, Oral, Gavage/Intubation, dose end: 17 GD
[2] = test system: dog; details: Sub-acute repeat dose toxicity; beagle; Oral; Gavage/Intubation; dose end: 1 month; group: systemic; systemic / in life observation / clinical signs / external lesion(s) + systemic / in life observation / clinical signs / reactivity to …
[3] = test system: rat; details: Fertility (Segment I), sprague dawley, Oral, Gavage/Intubation, dose end: 7 PND
[4] = test system: rabbit; details: Prenatal developmental toxicity study, new zealand white, Oral, Gavage/Intubation, dose end: 19 GD
[5] = test system: rat; details: Prenatal developmental toxicity study, sprague dawley, Oral, Gavage/Intubation, dose end: 17 GD; remark: listed apart in the source
[6] = test system: rat; details: Sub-acute repeat dose toxicity, sprague dawley, Oral, Gavage/Intubation, dose end: 1 month, group: systemic
[7] = group: developmental, systemic / in life observation / body weight / fetal weight
[8] = group: maternal, systemic / in life observation / body weight / body weight gain + systemic / in life observation / clinical signs / body cold to touch + …
[9] = group: maternal, reproductive / reproductive performance / estrous cycle / abnormal + reproductive / reproductive performance / estrous cycle / corpora lutea…
[10] = group: parental, systemic / in life observation / body weight / body weight gain + systemic / in life observation / clinical signs / salivation + systemic / …
[11] = group: parental, systemic / in life observation / clinical signs / salivation
[12] = group: maternal, reproductive / reproductive performance / aborted / aborted + reproductive / reproductive performance / postimplantation loss / …
[13] = group: maternal, reproductive / reproductive performance / aborted / aborted + systemic / in life observation / clinical signs / body temperature + systemic…
[14] = group: developmental, developmental / developmental malformation / bone / [other] + developmental / developmental malformation / bone / absent + developmental / …
[15] = group: maternal, reproductive / reproductive performance / postimplantation loss / postimplantation loss + reproductive / reproductive performance / …
[16] = group: maternal, systemic / in life observation / body weight / body weight gain + systemic / in life observation / food consumption / food consumption
[17] = systemic / in life observation / body weight / body weight + systemic / in life observation / body weight / body weight gain + systemic / in…
[18] = systemic / in life observation / clinical signs / body temperature

With O=C(Nc1ccc2[nH]ccc2c1)c1cc2cc(F)ccc2n1Cc1cccc(F)c1 the LEL [1, 7] was 10 mg/kg/day, the LOAEL [1, 7] was greater than 400 mg/kg/day and the NEL [1, 7] was less than 10 mg/kg/day. It also gave an NOAEL [1, 7] of no less than 400 mg/kg/day, an LEL [1, 8] of 10 mg/kg/day and an LOAEL [1, 8] greater than 400 mg/kg/day. For the same molecule, the NEL [1, 8] was less than 10 mg/kg/day, the NOAEL [1, 8] was no less than 400 mg/kg/day and the LEL [2] was 0.05 mg/kg/day. The LOAEL [2] was greater than 1 mg/kg/day, the NEL [2] was less than 0.05 mg/kg/day and the NOAEL [2] was no less than 1 mg/kg/day. The LEL [3, 9] was 6 mg/kg/day, the LOAEL [3, 9] was 6 mg/kg/day and the NEL [3, 9] was 1 mg/kg/day. The NOAEL [3, 9] was 1 mg/kg/day, the LOAEL [3, 10] was 6 mg/kg/day and the NOAEL [3, 10] was 1 mg/kg/day. It also gave an LEL [3, 11] of 1 mg/kg/day, an NEL [3, 11] of less than 1 mg/kg/day and an LEL [4, 7] of 5 mg/kg/day. The LOAEL [4, 7] was greater than 900 mg/kg/day, the NEL [4, 7] was less than 5 mg/kg/day and the NOAEL [4, 7] was no less than 900 mg/kg/day. It also gave an LOAEL [4, 12] greater than 900 mg/kg/day, an NOAEL [4, 12] of no less than 900 mg/kg/day and an LEL [4, 13] of 5 mg/kg/day. The NEL [4, 13] was less than 5 mg/kg/day, the LEL [5, 14] was 6 mg/kg/day and the LOAEL [5, 14] was 6 mg/kg/day. The NEL [5, 14] was 1 mg/kg/day, the NOAEL [5, 14] was 1 mg/kg/day and the LOAEL [5, 15] was 6 mg/kg/day. The NOAEL [5, 15] was 1 mg/kg/day, the LEL [5, 16] was 1 mg/kg/day and the NEL [5, 16] was less than 1 mg/kg/day. The LOAEL [6, 17] was 100 mg/kg/day, the NOAEL [6, 17] was 2 mg/kg/day and the LEL [6, 18] was 2 mg/kg/day. It also gave an NEL [6, 18] of less than 2 mg/kg/day.
